Results from PubChem BioAssay (NCI).
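48-hour exposure; five concentrations; linearly interpolated endpoints. The concentration for 50% growth inhibition is given as GI50. The concentration for full growth arrest is given as TGI.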

Tests used:
Assay in all cases: DTP human tumour cell line panel, 48 h
[1] = tested on: 786-0 renal
[2] = tested on: A498 renal
[3] = tested on: A549 NSCLC
[4] = tested on: ACHN renal
[5] = tested on: BT-549 breast
[6] = tested on: CAKI-1 renal
[7] = tested on: CCRF-CEM leukemia
[8] = tested on: COLO 205 colon
[9] = tested on: DU-145 prostate
[10] = tested on: EKVX NSCLC
[11] = tested on: HCC-2998 colon
[12] = tested on: HCT-116 colon
[13] = tested on: HCT-15 colon
[14] = tested on: HL-60(TB) leukemia
[15] = tested on: HOP-62 NSCLC
[16] = tested on: HOP-92 NSCLC
[17] = tested on: HS 578T breast
[18] = tested on: HT29 colon
[19] = tested on: IGROV1 ovarian
[20] = tested on: K-562 leukemia
[21] = tested on: KM12 colon
[22] = tested on: LOX IMVI melanoma
[23] = tested on: M14 melanoma
[24] = tested on: MCF7 breast
[25] = tested on: MDA-MB-231 breast
[26] = tested on: MDA-MB-435
[27] = tested on: MOLT-4 leukemia
[28] = tested on: NCI-H226 lung
[29] = tested on: NCI-H23 lung
[30] = tested on: NCI-H460 lung
[31] = tested on: NCI-H522 lung
[32] = tested on: NCI/ADR-RES ovarian
[33] = tested on: OVCAR-3 ovarian
[34] = tested on: OVCAR-4 ovarian
[35] = tested on: OVCAR-5 ovarian
[36] = tested on: OVCAR-8 ovarian
[37] = tested on: PC-3 prostate
[38] = tested on: RPMI-8226 leukemia
[39] = tested on: RXF 393 renal
[40] = tested on: SF-268 CNS
[41] = tested on: SF-295 CNS
[42] = tested on: SF-539 CNS
[43] = tested on: SK-MEL-2 melanoma
[44] = tested on: SK-MEL-28 melanoma
[45] = tested on: SK-MEL-5 melanoma
[46] = tested on: SK-OV-3 ovarian
[47] = tested on: SN12C renal
[48] = tested on: SNB-19 CNS
[49] = tested on: SNB-75 CNS
[50] = tested on: SR leukemia
[51] = tested on: SW-620 colon
[52] = tested on: T-47D breast
[53] = tested on: TK-10 renal
[54] = tested on: U251 CNS
[55] = tested on: UACC-257 melanoma
[56] = tested on: UACC-62 melanoma
[57] = tested on: UO-31 renal

Molecule `Nc1ccc2c(c1)Cc1cc(Cl)c(Cl)cc1-2` has a GI50 [1] of over 100 µM, a TGI [1] of over 100 µM and a GI50 [2] of 4.78 µM. It also gave a TGI [2] of over 100 µM, a GI50 [3] of 7.72 µM and a TGI [3] of over 100 µM. The GI50 [4] was 7.06 µM, the TGI [4] was over 100 µM and the GI50 [5] was over 100 µM. The TGI [5] was over 100 µM, the GI50 [6] was 3.76 µM and the TGI [6] was over 100 µM. It also gave a GI50 [7] of 7.73 µM, a TGI [7] of over 100 µM and a GI50 [8] of 22.2 µM. It also gave a TGI [8] of over 100 µM, a GI50 [9] of 6.24 µM and a TGI [9] of over 100 µM. The GI50 [10] was 1.94 µM, the TGI [10] was 8.82 µM and the GI50 [11] was 9.19 µM. It also gave a TGI [11] of over 100 µM, a GI50 [12] of 6.81 µM and a TGI [12] of over 100 µM. It also gave a GI50 [13] of 6.22 µM, a TGI [13] of over 100 µM and a GI50 [14] of 55 µM. The TGI [14] was over 100 µM, the GI50 [15] was over 100 µM and the TGI [15] was over 100 µM. The GI50 [16] was 97.9 µM, the TGI [16] was over 100 µM and the GI50 [17] was 5.79 µM. For the same molecule, the TGI [17] was over 100 µM, the GI50 [18] was over 100 µM and the TGI [18] was over 100 µM. For the same molecule, the GI50 [19] was 17.7 µM, the TGI [19] was over 100 µM and the GI50 [20] was over 100 µM. The TGI [20] was over 100 µM, the GI50 [21] was 7.05 µM and the TGI [21] was over 100 µM. For the same molecule, the GI50 [22] was 65.6 µM, the TGI [22] was over 100 µM and the GI50 [23] was 3.55 µM. The TGI [23] was over 100 µM, the GI50 [24] was 0.562 µM and the TGI [24] was over 100 µM. The GI50 [25] was 6.39 µM, the TGI [25] was over 100 µM and the GI50 [26] was 1.77 µM. For the same molecule, the TGI [26] was 4.51 µM, the GI50 [27] was over 100 µM and the TGI [27] was over 100 µM. For the same molecule, the GI50 [28] was over 100 µM, the TGI [28] was over 100 µM and the GI50 [29] was over 100 µM. The TGI [29] was over 100 µM, the GI50 [30] was 5.12 µM and the TGI [30] was over 100 µM. For the same molecule, the GI50 [31] was over 100 µM, the TGI [31] was over 100 µM and the GI50 [32] was 62.2 µM. For the same molecule, the TGI [32] was over 100 µM, the GI50 [33] was 3.17 µM and the TGI [33] was 87.8 µM. The GI50 [34] was over 100 µM, the TGI [34] was over 100 µM and the GI50 [35] was over 100 µM. The TGI [35] was over 100 µM, the GI50 [36] was over 100 µM and the TGI [36] was over 100 µM. For the same molecule, the GI50 [37] was over 100 µM, the TGI [37] was over 100 µM and the GI50 [38] was 57.6 µM. It also gave a TGI [38] of over 100 µM, a GI50 [39] of 6.07 µM and a TGI [39] of over 100 µM. For the same molecule, the GI50 [40] was over 100 µM, the TGI [40] was over 100 µM and the GI50 [41] was 2.25 µM. The TGI [41] was 7.15 µM, the GI50 [42] was 57.3 µM and the TGI [42] was over 100 µM. The GI50 [43] was over 100 µM, the TGI [43] was over 100 µM and the GI50 [44] was over 100 µM. For the same molecule, the TGI [44] was over 100 µM, the GI50 [45] was 8.17 µM and the TGI [45] was over 100 µM. The GI50 [46] was 8.03 µM, the TGI [46] was over 100 µM and the GI50 [47] was 11.9 µM. For the same molecule, the TGI [47] was over 100 µM, the GI50 [48] was 5.96 µM and the TGI [48] was over 100 µM. For the same molecule, the GI50 [49] was 67.8 µM, the TGI [49] was over 100 µM and the GI50 [50] was 26.9 µM. It also gave a TGI [50] of over 100 µM, a GI50 [51] of 5.43 µM and a TGI [51] of over 100 µM. It also gave a GI50 [52] of over 100 µM, a TGI [52] of over 100 µM and a GI50 [53] of over 100 µM. For the same molecule, the TGI [53] was over 100 µM, the GI50 [54] was 5.56 µM and the TGI [54] was over 100 µM. It also gave a GI50 [55] of over 100 µM, a TGI [55] of over 100 µM and a GI50 [56] of 12.8 µM. For the same molecule, the TGI [56] was over 100 µM, the GI50 [57] was 6.01 µM and the TGI [57] was over 100 µM.
